One data set addresses Cholinesterase (Equus caballus, UniProt P81908).
A further data set deals with Acetylcholinesterase (Electrophorus electricus, UniProt O42275).
Data set [1] relates to Radical scavenging activity. The experiment in a line: Antioxidant activity assessed as DPPH free radical scavenging activity at 2 mM relative to ferulic acid. In kind it is functional. For orientation: DPPH is a stable violet radical that fades when it is reduced.
Another data set deals with Aorta. The data set can be described thus: tissue or blood. The conditions noted are these: Rattus norvegicus.
The target in data set [2] is Cholinesterase (Equus caballus) (UniProt P81908). The data set can be described thus: Competitive inhibition of equine serum BuChE using butyrylthiocholine iodide as substrate at 1 to 10 nM after 4 mins by Ellman's method.
Sequence of Cholinesterase (Equus caballus) (P81908 whole entry): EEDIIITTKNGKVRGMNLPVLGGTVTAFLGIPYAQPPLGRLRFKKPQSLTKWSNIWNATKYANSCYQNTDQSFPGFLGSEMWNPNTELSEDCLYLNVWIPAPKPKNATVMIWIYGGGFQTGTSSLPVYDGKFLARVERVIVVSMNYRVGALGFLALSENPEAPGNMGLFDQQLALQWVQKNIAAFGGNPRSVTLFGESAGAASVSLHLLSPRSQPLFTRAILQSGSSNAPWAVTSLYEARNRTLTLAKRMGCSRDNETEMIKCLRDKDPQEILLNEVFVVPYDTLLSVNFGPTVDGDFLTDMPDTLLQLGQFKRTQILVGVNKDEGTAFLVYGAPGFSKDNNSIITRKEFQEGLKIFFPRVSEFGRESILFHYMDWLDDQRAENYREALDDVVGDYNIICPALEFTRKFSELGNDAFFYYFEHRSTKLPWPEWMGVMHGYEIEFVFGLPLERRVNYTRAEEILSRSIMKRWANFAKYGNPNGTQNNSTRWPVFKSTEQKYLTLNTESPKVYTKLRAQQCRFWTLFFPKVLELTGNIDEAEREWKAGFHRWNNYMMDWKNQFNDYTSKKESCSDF
Data set [3] is described as follows: Induction of NO release in phosphate buffer assessed as inorganic nitrite level at pH 7.4 at 10^-4 M measured at 30 mins by Griess assay in presence of L-cysteine. Type of data set: physicochemical. Particulars: pH 7.4, 0.5 h, 100 µM. On the technique in general: Griess reagent forms a coloured azo dye with nitrite.
Data set [4] can be described thus: Induction of NO release in phosphate buffer assessed as inorganic nitrite level at pH 7.4 at 10^-4 M measured at 10 mins by Griess assay in presence of L-cysteine. In kind it is physicochemical. The conditions noted are these: pH 7.4, 10 min, 100 µM.
For data set [5], the target named is Acetylcholinesterase (Electrophorus electricus) (UniProt O42275). The data set can be described thus: Mixed inhibition of eel AChE using acetylthiocholine iodide as substrate at 1 to 10 nM after 4 mins by Lineweaver-Burk plot analysis.
Sequence of Acetylcholinesterase (Electrophorus electricus) (O42275 24-633 limits assumed): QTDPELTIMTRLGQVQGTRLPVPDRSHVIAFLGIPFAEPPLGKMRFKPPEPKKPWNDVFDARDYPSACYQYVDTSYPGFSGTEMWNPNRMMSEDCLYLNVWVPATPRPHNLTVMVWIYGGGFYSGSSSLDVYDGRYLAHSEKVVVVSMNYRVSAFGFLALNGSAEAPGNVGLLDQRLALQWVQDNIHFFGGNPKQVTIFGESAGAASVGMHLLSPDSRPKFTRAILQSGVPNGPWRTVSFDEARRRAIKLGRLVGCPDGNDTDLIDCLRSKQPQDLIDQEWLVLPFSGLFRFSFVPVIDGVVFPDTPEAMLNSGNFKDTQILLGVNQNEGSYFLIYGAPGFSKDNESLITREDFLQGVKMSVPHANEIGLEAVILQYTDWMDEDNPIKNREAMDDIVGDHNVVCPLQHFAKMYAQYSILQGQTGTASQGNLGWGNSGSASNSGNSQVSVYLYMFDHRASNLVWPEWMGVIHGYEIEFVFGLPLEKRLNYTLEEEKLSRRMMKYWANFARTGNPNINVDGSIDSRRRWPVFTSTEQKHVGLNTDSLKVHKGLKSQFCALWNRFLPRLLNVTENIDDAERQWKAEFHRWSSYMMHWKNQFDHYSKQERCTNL

SMILES strings stand for the structures. Active and inactive are the calls of the source. The rule behind the calls is not given here. A value given as a limit tells only on which side of the number the result lay.

Sequence of Acetylcholinesterase (O42275 whole entry): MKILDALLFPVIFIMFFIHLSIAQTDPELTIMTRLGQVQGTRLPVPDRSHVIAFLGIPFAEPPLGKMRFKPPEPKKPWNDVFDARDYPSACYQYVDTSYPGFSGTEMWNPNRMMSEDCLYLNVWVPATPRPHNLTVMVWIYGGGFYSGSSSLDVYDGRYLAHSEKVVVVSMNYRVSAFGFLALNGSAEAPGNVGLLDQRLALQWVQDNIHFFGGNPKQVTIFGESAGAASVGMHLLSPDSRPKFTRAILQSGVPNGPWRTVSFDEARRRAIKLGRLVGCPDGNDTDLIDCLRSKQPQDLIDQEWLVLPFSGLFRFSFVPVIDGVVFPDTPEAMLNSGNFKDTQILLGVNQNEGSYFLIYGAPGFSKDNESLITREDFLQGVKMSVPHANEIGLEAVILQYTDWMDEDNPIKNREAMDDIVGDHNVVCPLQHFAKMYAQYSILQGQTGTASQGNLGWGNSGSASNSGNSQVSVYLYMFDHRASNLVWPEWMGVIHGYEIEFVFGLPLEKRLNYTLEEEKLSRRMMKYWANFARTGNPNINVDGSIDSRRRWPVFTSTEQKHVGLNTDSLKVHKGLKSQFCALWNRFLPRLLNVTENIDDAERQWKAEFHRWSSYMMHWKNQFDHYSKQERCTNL
Sequence of Cholinesterase (P81908 whole entry): as the sequence (P81908 whole entry) above
Description for Aorta: Vasorelaxant activity in rat aortic rings assessed as reduction of norepinephrine-induced contraction

What is called IC50 is the concentration that gives 50% inhibition. For `COc1cc(/C=C/C(=O)NCCNc2c3c(nc4ccccc24)CCCC3)ccc1OCCCCCCO[N+](=O)[O-]`, the concentration for half-maximal inhibition (IC50) worked out at 0.0218 µM against Cholinesterase and 0.0406 µM against Acetylcholinesterase. For the same compound, the Activity in data set [1] was less than 1%.

Consider `COc1cc(/C=C/C(=O)NCCCCNc2c3c(nc4ccccc24)CCCC3)ccc1OCCCCO[N+](=O)[O-]`, for which the IC50 against Cholinesterase stood at 0.0047 µM; on Acetylcholinesterase it was 0.0195 µM. For the same compound, the Activity in data set [1] was less than 1%.

Consider `COc1cc(/C=C/C(=O)O)ccc1OCCO[N+](=O)[O-]`, for which the IC50 on Cholinesterase and on Acetylcholinesterase was greater than 10 µM in each case.

For orientation: EC50 means the concentration giving half of the maximal effect. The low end stands for an effect from little substance, the high end for a need for much substance. `COc1cc(/C=C/C(=O)NCCCNc2c3c(nc4ccccc24)CCCC3)ccc1OCCCO[N+](=O)[O-]`: the half-maximal effective concentration (EC50) in the data set with Aorta was found to be 34.3 µM. The inhibition result in data set [2] and in data set [5] was “Active” each time. Also, the IC50 against Cholinesterase came out at 0.0177 µM; against Acetylcholinesterase, 0.0109 µM. Moreover, the results for the Activity in data set [3], in data set [4] and in data set [1] were 0.305 µg/mL, 0.241 µg/mL and less than 1%, respectively.

Turning to `COc1cc(/C=C/C(=O)NCCNc2c3c(nc4ccccc24)CCCC3)ccc1OCCO[N+](=O)[O-]`, the response in the data set on Aorta was half-maximal at 48.8 µM (EC50). Further, the IC50 against Cholinesterase was determined as 0.0105 µM; on Acetylcholinesterase, 0.0172 µM. Further, the Activity in data set [1] was less than 1%.

Regarding `COc1cc(/C=C/C(=O)NCCCCCCCCNc2c3c(nc4ccccc24)CCCC3)ccc1O`, the IC50 at Cholinesterase turned out to be 0.0274 µM; against Acetylcholinesterase, 0.0169 µM.

With `NCCCCCCCCNc1c2c(nc3ccccc13)CCCC2`, the IC50 against Cholinesterase came to 0.0028 µM; on Acetylcholinesterase, 0.0029 µM.

Turning to `COc1cc(/C=C/C(=O)NCCCCNc2c3c(nc4ccccc24)CCCC3)ccc1O`, the half-maximal inhibitory concentration (IC50) on Cholinesterase was found to be 0.0098 µM; on Acetylcholinesterase, 0.0111 µM.

In the case of `CCCOc1ccc(/C=C/C(=O)NCCCNc2c3c(nc4ccccc24)CCCC3)cc1OC`, a half-maximal response with Aorta (EC50) required 838 µM. Besides, the IC50 worked out at 0.0403 µM against Cholinesterase and 0.0698 µM at Acetylcholinesterase.

As for `COc1cc(/C=C/C(=O)NCCCCNc2c3c(nc4ccccc24)CCCC3)ccc1OCCCCCCO[N+](=O)[O-]`, the results for the IC50 on Cholinesterase and on Acetylcholinesterase were 0.0117 µM and 0.0279 µM, respectively. Besides, the Activity in data set [1] was less than 1%.

As to `COc1cc(/C=C/C(=O)NCCCCCCNc2c3c(nc4ccccc24)CCCC3)ccc1OCCO[N+](=O)[O-]`, the IC50 came to 0.0052 µM on Cholinesterase and 0.0083 µM against Acetylcholinesterase. In addition, the Activity in data set [1] was less than 1%.

With `COc1cc(/C=C/C(=O)O)ccc1OCCCO[N+](=O)[O-]`, the concentration for half-maximal inhibition (IC50) against Cholinesterase and at Acetylcholinesterase was greater than 10 µM in each case.

In the case of `NCCCCCCNc1c2c(nc3ccccc13)CCCC2`, the IC50 at Cholinesterase was 0.0066 µM; at Acetylcholinesterase, 0.0237 µM.

With `COc1cc(/C=C/C(=O)NCCCNc2c3c(nc4ccccc24)CCCC3)ccc1OCCCCO[N+](=O)[O-]`, the half-inhibitory concentration (IC50) against Cholinesterase is 0.0062 µM; against Acetylcholinesterase, 0.0036 µM. The Activity in data set [1] is less than 1%.

Consider `COc1cc(/C=C/C(=O)NCCCCCCCCNc2c3c(nc4ccccc24)CCCC3)ccc1OCCCCO[N+](=O)[O-]`, for which the IC50 against Cholinesterase was 0.0018 µM; at Acetylcholinesterase it was 0.0094 µM. Further, in data set [1], the Activity was less than 1%.

As to `COc1cc(/C=C/C(=O)NCCCNc2c3c(nc4ccccc24)CCCC3)ccc1OCCO[N+](=O)[O-]`, the IC50 against Cholinesterase turned out to be 0.0249 µM; at Acetylcholinesterase, 0.0144 µM. Further, in data set [1], the Activity was less than 1%.

In the case of `NCCNc1c2c(nc3ccccc13)CCCC2`, the concentration for half-maximal inhibition (IC50) amounted to 0.0309 µM against Cholinesterase and 0.0714 µM on Acetylcholinesterase.

In turn, `COc1cc(/C=C/C(=O)NCCCNc2c3c(nc4ccccc24)CCCC3)ccc1O` had an EC50 with Aorta of 2050 µM. Besides, the IC50 against Cholinesterase came to 0.0311 µM; against Acetylcholinesterase it was 0.0567 µM.

On to `NCCCCNc1c2c(nc3ccccc13)CCCC2`, for which the IC50 on Cholinesterase turned out to be 0.0229 µM; against Acetylcholinesterase, 0.0393 µM.

On to `COc1cc(/C=C/C(=O)NCCCCCCNc2c3c(nc4ccccc24)CCCC3)ccc1O`, for which the IC50 was determined as 0.0263 µM against Cholinesterase and 0.0127 µM on Acetylcholinesterase. In addition, the Activity in data set [1] is 64.7%.

`COc1cc(/C=C/C(=O)NCCNc2c3c(nc4ccccc24)CCCC3)ccc1OCCCCO[N+](=O)[O-]`: the IC50 at Cholinesterase came to 0.0076 µM; against Acetylcholinesterase, 0.0271 µM. In addition, the Activity in data set [1] is less than 1%.

With `COc1cc(/C=C/C(=O)NCCNc2c3c(nc4ccccc24)CCCC3)ccc1O`, the IC50 at Cholinesterase was found to be 0.0375 µM; at Acetylcholinesterase, 0.062 µM.

On to `COc1cc(/C=C/C(=O)NCCCCCCNc2c3c(nc4ccccc24)CCCC3)ccc1OCCCCO[N+](=O)[O-]`, for which the figures for the IC50 against Cholinesterase and against Acetylcholinesterase were 0.0014 µM and 0.0037 µM, respectively. The Activity in data set [1] was less than 1%.

Take `COc1cc(/C=C/C(=O)NCCCCCCCCNc2c3c(nc4ccccc24)CCCC3)ccc1OCCCO[N+](=O)[O-]`: the IC50 was 0.001 µM against Cholinesterase and 0.0101 µM against Acetylcholinesterase. The Activity in data set [1] was less than 1%.

Turning to `COc1cc(/C=C/C(=O)NCCCCCCNc2c3c(nc4ccccc24)CCCC3)ccc1OCCCO[N+](=O)[O-]`, the IC50 worked out at 0.0056 µM at Cholinesterase and 0.0044 µM against Acetylcholinesterase. In data set [1], the Activity was less than 1%.

With `COc1cc(/C=C/C(=O)NCCCNc2c3c(nc4ccccc24)CCCC3)ccc1OCCCCCCO[N+](=O)[O-]`, the IC50 is 0.0193 µM on Cholinesterase and 0.0218 µM on Acetylcholinesterase. Besides, the Activity in data set [1] was less than 1%.

With `NCCCNc1c2c(nc3ccccc13)CCCC2`, the IC50 came out at 0.0197 µM against Cholinesterase and 0.0795 µM on Acetylcholinesterase.

In the data set on Aorta, `O=[N+]([O-])O[C@H]1CO[C@H]2[C@@H]1OC[C@H]2O[N+](=O)[O-]` [ISOSORBIDE DINITRATE] registered a concentration for a half-maximal effect (EC50) of 25.2 µM.

Turning to `COc1cc(/C=C/C(=O)NCCCCNc2c3c(nc4ccccc24)CCCC3)ccc1OCCCO[N+](=O)[O-]`, the figures for the IC50 on Cholinesterase and at Acetylcholinesterase were 0.0236 µM and 0.0443 µM, respectively. The Activity in data set [1] is less than 1%.

In the case of `COc1cc(/C=C/C(=O)NCCCCCCNc2c3c(nc4ccccc24)CCCC3)ccc1OCCCCCCO[N+](=O)[O-]`, the IC50 against Cholinesterase came to 0.002 µM; on Acetylcholinesterase it was 0.0048 µM. The Activity in data set [1] was less than 1%.

Regarding `COc1cc(/C=C/C(=O)NCCCCNc2c3c(nc4ccccc24)CCCC3)ccc1OCCO[N+](=O)[O-]`, the results for the IC50 at Cholinesterase and at Acetylcholinesterase were 0.0202 µM and 0.0221 µM, respectively. Moreover, in data set [1], the Activity is less than 1%.

Turning to `COc1cc(/C=C/C(=O)O)ccc1OCCCCO[N+](=O)[O-]`, the half-inhibitory concentration (IC50) on Cholinesterase and against Acetylcholinesterase was greater than 10 µM in each case.

Consider `COc1cc(/C=C/C(=O)NCCNc2c3c(nc4ccccc24)CCCC3)ccc1OCCCO[N+](=O)[O-]`, for which the results for the concentration for half-maximal inhibition (IC50) on Cholinesterase and at Acetylcholinesterase were 0.0084 µM and 0.0199 µM, respectively. Also, in data set [1], the Activity was less than 1%.

In the case of `COc1cc(/C=C/C(=O)NCCCCCCCCNc2c3c(nc4ccccc24)CCCC3)ccc1OCCCCCCO[N+](=O)[O-]`, the IC50 came to 0.0019 µM on Cholinesterase and 0.0108 µM against Acetylcholinesterase. For the same compound, the Activity in data set [1] is less than 1%.

`COc1cc(/C=C/C(=O)NCCCCCCCCNc2c3c(nc4ccccc24)CCCC3)ccc1OCCO[N+](=O)[O-]` came in with an EC50 with Aorta of 234 µM. Further, the IC50 was 0.0016 µM against Cholinesterase and 0.0055 µM at Acetylcholinesterase. The Activity was 0.275 µg/mL in data set [3], 0.145 µg/mL in data set [4] and less than 1% in data set [1].

Regarding `COc1cc(/C=C/C(=O)O)ccc1OCCCCCCO[N+](=O)[O-]`, the IC50 on Cholinesterase and at Acetylcholinesterase was greater than 10 µM in each case.

Source of the values: ChEMBL document CHEMBL2169775, “Tacrine-ferulic acid-nitric oxide (NO) donor trihybrids as potent, multifunctional acetyl- and butyrylcholinesterase inhibitors” (J Med Chem, 2012).
